Experimental data as given in patent US20250059220A1, “SUBSTITUTED BENZOTHIOPHENE DERIVATIVES AND METHODS OF USE THEREOF” (Merck Sharp & Dohme LLC, priority 2021, published 2025).

Experiments:
human PTPN2 (1-387) = human PTPN2 (1-387) (Homo sapiens (Human), UniProt P17706); assay: Human PTPN2 Biochemical Assay; conditions: DiFMUP substrate
Method in brief: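 Human PTPN2 (1-387) preincubated 30 min at RT with compound (10-point 3-fold series) in Tris pH 7.4 buffer with 0.5 mM DTT, then DiFMUP substrate added for 1 h at RT. Fluorescence at ex 360/em 460 nm, normalised to no-enzyme and enzyme controls; EC50 from 4-parameter fit.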

human PTPN1 (1-435) = human PTPN1 (1-435) (Homo sapiens (Human), UniProt P18031); assay: Human PTPN1 Biochemical Assay; conditions: DiFMUP substrate, read-out: PTP1B IC50
Sequence of human PTPN1 (1-435) (P18031 whole entry): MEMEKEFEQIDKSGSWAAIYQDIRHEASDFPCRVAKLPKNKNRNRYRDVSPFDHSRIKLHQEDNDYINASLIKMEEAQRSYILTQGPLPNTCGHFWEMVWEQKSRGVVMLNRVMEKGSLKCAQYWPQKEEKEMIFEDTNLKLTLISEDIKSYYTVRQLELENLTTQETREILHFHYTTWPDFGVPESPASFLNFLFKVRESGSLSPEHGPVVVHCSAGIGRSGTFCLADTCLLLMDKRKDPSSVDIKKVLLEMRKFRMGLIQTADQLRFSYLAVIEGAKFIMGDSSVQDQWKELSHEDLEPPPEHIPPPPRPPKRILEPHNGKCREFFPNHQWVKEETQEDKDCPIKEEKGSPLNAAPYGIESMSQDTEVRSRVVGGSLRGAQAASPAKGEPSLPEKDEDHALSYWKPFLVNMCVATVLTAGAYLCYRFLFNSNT
Method in brief: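 Read-out is DiFMUP hydrolysis fluorescence (360 nm excitation, 460 nm emission) after 1 h at room temperature, following 30 min enzyme–compound preincubation.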

Sequence of human PTPN2 (1-387) (P17706 other isoform, or with tags, fused parts or gaps): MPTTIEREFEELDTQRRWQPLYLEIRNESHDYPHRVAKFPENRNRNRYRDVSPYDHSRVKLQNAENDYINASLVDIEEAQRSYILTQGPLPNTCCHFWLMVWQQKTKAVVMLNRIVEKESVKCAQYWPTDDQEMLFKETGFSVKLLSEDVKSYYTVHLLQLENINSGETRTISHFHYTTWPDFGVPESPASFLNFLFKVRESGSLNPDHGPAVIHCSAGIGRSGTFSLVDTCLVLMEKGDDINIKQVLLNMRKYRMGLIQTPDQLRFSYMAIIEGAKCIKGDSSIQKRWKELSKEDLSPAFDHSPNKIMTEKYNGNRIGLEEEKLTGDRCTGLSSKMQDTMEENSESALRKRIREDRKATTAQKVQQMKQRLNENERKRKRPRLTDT

IC50 (human PTPN2 (1-387)) [nM] | IC50 (human PTPN1 (1-435)) [nM] | Structure (SMILES)
1730 | 1030 | O=P(O)(O)C(F)(F)c1sc2ccc(-c3nc4ccccc4[nH]3)cc2c1Br [Compound 230, ((5-(1H-benzo[d]imidazol-2-yl)-3-bromobenzo[b]thiophen-2-yl)difluoromethyl)phosphonic acid]
64.5 | 42 | NC(=O)c1cc(OCC2CC3(CCC3)C2)c2sc(C(F)(F)P(=O)(O)O)c(Br)c2c1 [Compound 284]
1450 | 3780 | O=C(N[C@@H]1CCCC[C@H]1c1ccccc1)c1ccc2sc(C(F)(F)P(=O)(O)O)c(Br)c2c1 [Compound 86]
7490 | 6390 | Cc1nn(C)cc1CNC(=O)c1ccc2sc(C(F)(F)P(=O)(O)O)c(Br)c2c1 [Compound 50]
3470 | 7430 | CCC(COCc1ccccc1)NC(=O)c1ccc2sc(C(F)(F)P(=O)(O)O)c(Br)c2c1 (stereo not drawn) [Compound 84]
266 | 233 | CC(F)(F)CCOc1cc(C(N)=O)cc2c(Br)c(C(F)(F)P(=O)(O)O)sc12 [Compound 327]
4160 | 4130 | O=C1NC[C@@H](CNC(=O)c2ccc3sc(C(F)(F)P(=O)(O)O)c(Br)c3c2)N1 [Compound 131]
4.52 | 5.8 | CS(=O)(=O)c1ccc(COc2cc(C(N)=O)cc3c(Br)c(C(F)(F)P(=O)(O)O)sc23)cc1 [Compound 377]
6360 | 5290 | O=C(Nc1ccc2sc(C(F)(F)P(=O)(O)O)c(Br)c2c1)C(F)(F)F [Compound 213]
2.5 | 2.5 | NC(=O)c1cc(OC[C@H]2C[C@H](S(N)(=O)=O)C2)c2sc(C(F)(F)P(=O)(O)O)c(Br)c2c1 [Compound 381]
87.2 | 82.1 | Cc1c(C(F)(F)P(=O)(O)O)sc2c(OCCCS(C)(=O)=O)cc(C(N)=O)cc12 [Compound 429, ((5-carbamoyl-3-methyl-7-(3-(methylsulfonyl)propoxy)benzo[b]thiophen-2-yl)difluoromethyl)phosphonic acid]
4.4 | 7.7 | NC(=O)c1cc(OCc2ccc(S(N)(=O)=O)cc2)c2sc(C(F)(F)P(=O)(O)O)c(Br)c2c1 [Compound 397]
26.4 | 37.1 | NC(=O)c1cc(OCCCc2cncs2)c2sc(C(F)(F)P(=O)(O)O)c(Br)c2c1 [Compound 269]
2800 | 2400 | O=C(NCCc1c[nH]c2ccc(F)cc12)c1ccc2sc(C(F)(F)P(=O)(O)O)c(Br)c2c1 [Compound 94]
77.9 | 67.4 | NC(=O)CCCCOc1cc(C(N)=O)cc2c(Br)c(C(F)(F)P(=O)(O)O)sc12 [Compound 375]
98.7 | 112 | CCCCOc1cc(C(N)=O)cc2c(Br)c(C(F)(F)P(=O)(O)O)sc12 [Compound 240]
19.7 | 18.2 | NC(=O)c1cc(OCCC2CCCS2(=O)=O)c2sc(C(F)(F)P(=O)(O)O)c(Br)c2c1 (single isomer, unassigned) [Compound 372]
64.9 | 43 | NC(=O)c1cc(OCCCCC(F)(F)F)c2sc(C(F)(F)P(=O)(O)O)c(Br)c2c1 [Compound 274]

IC50 (human PTPN2 (1-387)) [nM] | IC50 (human PTPN1 (1-435)) [nM] | Structure (SMILES)
2880 | 2400 | O=C(NCc1ccc[n+]([O-])c1)c1ccc2sc(C(F)(F)P(=O)(O)O)c(Br)c2c1 [Compound 134]
271 | 423 | NC(=O)c1cc(OCCOCC(F)F)c2sc(C(F)(F)P(=O)(O)O)c(Br)c2c1 [Compound 251]
7150 | 5530 | CS(=O)(=O)N1CC2(CC(NC(=O)c3ccc4sc(C(F)(F)P(=O)(O)O)c(Br)c4c3)C2)C1 [Compound 48]
7470 | 3650 | O=C(NCCn1cncn1)c1ccc2sc(C(F)(F)P(=O)(O)O)c(Br)c2c1 [Compound 146]
3230 | 2230 | O=C(NC1CCC(F)(F)C1)c1ccc2sc(C(F)(F)P(=O)(O)O)c(Br)c2c1 (stereo not drawn) [Compound 41]
23.2 | 78.6 | NC(=O)c1cc(OCc2ccc(-c3cncnc3)cc2)c2sc(C(F)(F)P(=O)(O)O)c(Br)c2c1 [Compound 398]
542 | 444 | CC1CCc2c(sc(NC(=O)c3ccc4sc(C(F)(F)P(=O)(O)O)c(Br)c4c3)c2C#N)C1 (stereo not drawn) [Compound 63]
2.5 | 2.5 | NS(=O)(=O)CCCOc1cc(-c2nc[nH]n2)cc2c(Br)c(C(F)(F)P(=O)(O)O)sc12 [Compound 440]
8220 | 4410 | COc1ccc2c(c1)C(CC(C)NC(=O)c1ccc3sc(C(F)(F)P(=O)(O)O)c(Br)c3c1)C=N2 (stereo not drawn) [Compound 152]
2.6 | 3.7 | CNC(=O)c1cc(OCc2ccc(S(C)(=O)=O)cc2)c2sc(C(F)(F)P(=O)(O)O)c(Br)c2c1 [Compound 409]
4030 | 3860 | COCCOc1cc(C)ccc1NC(=O)c1ccc2sc(C(F)(F)P(=O)(O)O)c(Br)c2c1 [Compound 107]
7400 | 4080 | CS(=N)(=O)c1cc(OCCCC(F)(F)F)c2sc(C(F)(F)P(=O)(O)O)c(Br)c2c1 (stereo not drawn) [Compound 413]
581 | 663 | N#Cc1c(C(F)(F)P(=O)(O)O)sc2ccc(C(=O)NCc3cccnn3)cc12 [Compound 172]
47.2 | 35 | NC(=O)c1cc(OCCCC(F)(F)C(F)(F)F)c2sc(C(F)(F)P(=O)(O)O)c(Br)c2c1 [Compound 272]
636 | 518 | CC(C)(O)CCOc1cc(C(N)=O)cc2c(Br)c(C(F)(F)P(=O)(O)O)sc12 [Compound 170]
77.9 | 45 | NC(=O)c1cc(OCCCCC(F)(F)C(F)(F)F)c2sc(C(F)(F)P(=O)(O)O)c(Br)c2c1 [Compound 285]
16.3 | 29.5 | NC(=O)c1cc(OCc2ccc(C(F)(F)F)cc2)c2sc(C(F)(F)P(=O)(O)O)c(Br)c2c1 [Compound 345]
1180 | 1450 | O=C(NCc1ccc(F)nc1)c1ccc2sc(C(F)(F)P(=O)(O)O)c(Br)c2c1 [Compound 133]

Structure (SMILES) | IC50 (human PTPN2 (1-387)) [nM] | IC50 (human PTPN1 (1-435)) [nM]
O=P(O)(O)C(F)(F)c1sc2c(OCCCC(F)(F)F)cc(-c3c[nH]cn3)cc2c1Br [Compound 416, ((3-bromo-5-(1H-imidazol-4-yl)-7-(4,4,4-trifluorobutoxy)benzo[b]thiophen-2-yl)difluoromethyl)phosphonic acid] | 92 | 137
CCc1noc(CNC(=O)c2ccc3sc(C(F)(F)P(=O)(O)O)c(Br)c3c2)n1 [Compound 196] | 3540 | 2100
Nc1cc(OCCCC(F)(F)F)c2sc(C(F)(F)P(=O)(O)O)c(Br)c2c1 [Compound 259, ((5-amino-3-bromo-7-(4,4,4-trifluorobutoxy)benzo[b]thiophen-2-yl)difluoromethyl)phosphonic acid] | 338 | 180
CC(C)(O)CCOc1ccc2c(Br)c(C(F)(F)P(=O)(O)O)sc2c1 [Compound 302, ((3-bromo-6-(3-hydroxy-3-methylbutoxy)benzo[b]thiophen-2-yl)difluoromethyl)phosphonic acid] | 43700 | 37900
C[Si](C)(C)CCc1cc(C(N)=O)cc2c(Br)c(C(F)(F)P(=O)(O)O)sc12 [Compound 314] | 52.6 | 47.5
Cc1cc(CNC(=O)c2ccc3sc(C(F)(F)P(=O)(O)O)c(Br)c3c2)no1 [Compound 190] | 1830 | 1020
